Several values for one entry are separate records, joined by “and”; a condition that tells them apart may be missing. Equal values may be shown once.
Legend:
porcine tubulin = molecular target: T1, porcine tubulin (Sus scrofa, UniProt P02550+P02554); test: Tubulin polymerisation fluorescence-based assay; type: biochemical; conditions: 5 μM, 37 °C, 60 min; qualitative
T1 construct: purchased Cytoskeleton Inc., Denver, CO BK011P
Method: The effect of compounds 16a,b,d on tubulin polymerisation was measured in vitro using tubulin polymerisation fluorescence-based assay (cytoskeleton, cat. BK011P, https://www.cytoskeleton.com/bk011p). The assay was performed following the previous report[22] and according to the manufacturer’s instructions. Briefly, 2 mg/mL porcine tubulin was dissolved in buffer 1 (80 mM PIPES, 2 mM MgCl2, 0.5 mM EGTA pH 6.9, 10 µM fluorescent reporter, 1 mM GTP, 15% glycerol) to a final concentration of […]. Then tubulin solution was transferred to a pre-warmed 96-well plate that contained the test compounds 16a,b,d (5 μM), paclitaxel (3 μM), CaCl2 (0.5 μM), and control buffer. The polymerisation of tubulin was monitored as fluorescence at 37 °C for 60 min. Relative fluorescence units (RFU) were determined at 360 nm for excitation and at 460 nm for emission using the Varioskan Flash spectral scanning multimode reader (Thermo Fisher Scientific, Roskilde, Denmark) at a reading speed of 1 cycle/min.
In the current study, the new compounds were designed bearing the trimethoxy phenyl moiety aiming to obtain new cytotoxic agents that can interfere with tubulin polymerisation in cancer cells. […] In this assay, light scattering by microtubules which is directly proportional to the concentration of the microtubule polymer was used as a measure of tubulin polymerisation. The study was performed using a fluorescence-based tubulin polymerisation assay kit (Cytoskeleton Inc., Denver, CO; Cat # BK011P) following the manufacturer’s instructions (https://www.cytoskeleton.com/bk011p) and according to the previous report.
Paclitaxel (3 μM) was used as a tubulin polymerisation enhancer (positive control, enhancer), while calcium chloride (CaCl2, 0.5 μM) was used as a positive control (inhibitor) as per the manufacturer’s instructions (https://www.cytoskeleton.com/pdf-storage/datasheets/bk011p.pdf). The vehicle was also used to evaluate the polymerisation when tubulin is incubated in the absence of the test compound. The effect of the selected compounds (5 μM) on tubulin polymerisation was evaluated and compared with those of the positive control. The results are represented in Figure 8.

MCF-7/ADR cells = test: MTT assay, doxorubicin-resistant cells; type: cell-based; conditions: Homo sapiens, NCI/ADR-RES, 72 h treatment, n = 3, read-out: IC50 (µM ± SD) MCF-7/ADR
Method: MCF-7 (human breast adenocarcinoma), A2780 (human ovarian cancer) and HCT116 (human colorectal carcinoma), and MRC-5 (normal foetal lung fibroblast) cell lines were bought from the ATCC and were cultured in flasks which were incubated at 37 °C in an atmosphere of 5% CO2, 95% air, and 100% relative humidity, to maintain continuous logarithmic growth. MCF-7, A2780, and HCT116 were maintained in RPMI-1640 media (100 U/mL penicillin, 100 µg/mL streptomycin, and 10% foetal bovine serum, Gibco, Carlsbad, CA). MRC-5 cells were maintained in EMEM (100 U/mL penicillin, 100 µg/mL streptomycin, and 10% foetal bovine serum, Gibco, Carlsbad, CA). Doxorubicin (5 μg/mL, for three months) added for RPMI-1640 media containing MCF7 cells was used to develop doxorubicin-resistant MCF7/ADR cells. All cancer and normal cell lines were cultured according to our previous report. Cells were used within 10–20 passages and were checked for mycoplasma every 6 months, by measuring the bioluminescence (Myco Alert sample detection kit; Lonza, Basel, Switzerland) using the multiplate reader (Synergy HT, BioTek, Winooski, VT).
The MTT assay was used to measure the cytotoxicity and growth inhibitory activities and cytotoxicity of the new compounds according to our previous report[13]^,[17]. Cells from flasks of 70–80% confluency were separately seeded in 96-well flat-bottom microculture plates (Nalgene-Nunc, Thermo Fisher Scientific, Roskilde, Denmark) at a density of 3 × 10^3 cells (MCF-7, A2780, and MRC-5), 1 × 10^4 cells (HCT116), to a volume of 180 μL/well of culture medium. A Neubauer haemocytometer was used for cell counting. Cells were incubated at 37 °C overnight to allow attachment to the wells. The final concentrations of each compound in wells were: 0–50 μM in 200 μL of media (DMSO 0.1%). Lapatinib (Cayman, Ann Arbor, MI) was used as a positive control at the same final concentrations. […] Cytotoxicity of the new compounds was calculated after treatment of cancer/normal cell lines for 72 h. The absorbance of the reduced MTT was determined using a microplate reader A570 nm. […]

MCF-7 cells = test: Annexin V-FITC/PI apoptosis assay; type: cell-based, human; conditions: 0.1 μM, 24 h; for % Cell number, Early apoptosis / % Cell number, Late apoptosis / % Cell number, Live cells / % Cell number, Necrosis: n = 3
Method: The ability of compounds 16a,b,d to induce apoptotic changes in MCF-7 cells was determined by Annexin V-FITC/PI staining according to the previous report[13]^,[18]^,[19]. Additionally, the morphological changes in MCF-7 cells were examined by microscope. Following treatment with the test compounds at 0.1 µM for 24 h, the cells were stained with annexin V and PI. The determination of necrotic, early/late apoptotic changes were performed by flow cytometer (FC500, Beckman Coulter, Miami, FL).
The cytotoxic activity of our previously reported pyrrolizine-5-carboxamide 9a was mediated by the induction of apoptosis in MCF-7 cells[13]^,[19]. […] The cancer cells were treated with the test compounds (0.1 μM) for 24 h. The induction of apoptosis in MCF-7 cells by the selected compounds was investigated using annexin V fluorescein isothiocyanate (FITC)/propidium iodide (PI) staining assay. The assay procedures were the same as those applied in the previous report. Compound 16a increased apoptosis (early and late events) in MCF-7 cells to 19% compared to 1% in the control. Moreover, compound 16b caused a significant increase of MCF-7 apoptotic cells which was similar to the effect of compound 16a.

T1 sequence (P02550 whole entry): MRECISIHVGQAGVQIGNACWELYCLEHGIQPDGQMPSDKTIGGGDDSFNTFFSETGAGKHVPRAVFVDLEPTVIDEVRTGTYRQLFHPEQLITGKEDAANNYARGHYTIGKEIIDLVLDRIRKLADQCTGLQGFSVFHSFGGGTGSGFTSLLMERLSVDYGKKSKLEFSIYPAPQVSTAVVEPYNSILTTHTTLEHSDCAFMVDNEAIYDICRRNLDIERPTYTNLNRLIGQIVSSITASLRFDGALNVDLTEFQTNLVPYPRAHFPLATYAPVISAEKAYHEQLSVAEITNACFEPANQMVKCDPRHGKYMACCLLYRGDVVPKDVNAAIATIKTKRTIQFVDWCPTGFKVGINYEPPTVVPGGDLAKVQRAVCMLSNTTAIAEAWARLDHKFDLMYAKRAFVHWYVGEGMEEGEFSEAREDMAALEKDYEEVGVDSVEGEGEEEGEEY
T1 sequence (P02554 whole entry): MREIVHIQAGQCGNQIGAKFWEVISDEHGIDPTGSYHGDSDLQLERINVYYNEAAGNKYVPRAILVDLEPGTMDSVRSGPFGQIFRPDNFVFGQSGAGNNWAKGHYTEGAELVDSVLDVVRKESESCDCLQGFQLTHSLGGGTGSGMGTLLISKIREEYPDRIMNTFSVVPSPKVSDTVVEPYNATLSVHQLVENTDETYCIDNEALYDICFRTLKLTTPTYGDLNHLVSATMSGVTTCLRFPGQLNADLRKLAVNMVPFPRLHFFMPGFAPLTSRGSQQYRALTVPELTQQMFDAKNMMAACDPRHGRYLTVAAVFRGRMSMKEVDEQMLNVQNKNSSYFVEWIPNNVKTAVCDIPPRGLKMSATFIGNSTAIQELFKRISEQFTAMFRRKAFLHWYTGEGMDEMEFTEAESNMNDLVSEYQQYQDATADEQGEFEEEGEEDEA

Which results are given for COc1cc(C(=O)Nc2c(C#N)c3n(c2C(=O)Nc2ccccc2)CCC3)cc(OC)c1OC [16a, 7-Cyano-N-phenyl-6-(3,4,5-trimethoxybenzamido)-2,3-dihydro-1H-pyrrolizine-5-carboxamide]?
effect on tubulin polymerisation (porcine tubulin): weak; IC50 (MCF-7/ADR cells): 1.57 ± 0.04 µM; % Cell number, Early apoptosis (MCF-7 cells): 8.40 ± 0.87%; % Cell number, Late apoptosis (MCF-7 cells): 10.70 ± 1.06%; % Cell number, Live cells (MCF-7 cells): 77.40 ± 1.39%; % Cell number, Necrosis (MCF-7 cells): 3.50% and 3.50 ± 0.37%; apoptosis (early and late events) (MCF-7 cells; control 1%): 19%; melting point: 253 to 255 °C

For COc1cc(C(=O)Nc2c(C#N)c3n(c2C(=O)Nc2ccc(C)cc2)CCC3)cc(OC)c1OC [16b, 7-Cyano-N-(p-tolyl)-6-(3,4,5-trimethoxybenzamido)-2,3-dihydro-1H-pyrrolizine-5-carboxamide], which “effect on tubulin polymerisation” value (porcine tubulin) is on record?
The value was “moderate inhibitory activity”.

What about the IC50 (MCF-7/ADR cells) of the same compound?
Its IC50 is 6.26 ± 0.71 µM.

What about the “% Cell number, Early apoptosis” value (MCF-7 cells) of the same compound?
Its value is 6.22 ± 0.22%.

What about the “% Cell number, Late apoptosis” value (MCF-7 cells) of the same compound?
Its value is 13.01 ± 1.02%.

What about the “% Cell number, Live cells” value (MCF-7 cells) of the same compound?
Its value is 75.00 ± 2.90%.

And the “% Cell number, Necrosis” value (MCF-7 cells)?
Its value is 7.11% and 7.11 ± 0.80%.

What about the melting point of the same compound?
The melting point was 265 to 267 °C.

With COc1cc(C(=O)Nc2c(C#N)c3n(c2C(=O)Nc2ccc(Cl)cc2)CCC3)cc(OC)c1OC [16d, N-(4-Chlorophenyl)-7-cyano-6-(3,4,5-trimethoxybenzamido) -2,3-dihydro-1H-pyrrolizine-5-carboxamide] as the compound, how does the “effect on tubulin polymerisation” value (porcine tubulin) read?
Its value is “moderate inhibitory activity”.

What about the IC50 (MCF-7/ADR cells) of the same compound?
The IC50 was 0.52 ± 0.066 µM.

And the “% Cell number, Early apoptosis” value (MCF-7 cells)?
Its value is 7.50 ± 0.95%.

And the “% Cell number, Late apoptosis” value (MCF-7 cells)?
The value was 19.94 ± 1.30%.

What about the “% Cell number, Live cells” value (MCF-7 cells) of the same compound?
The value was 71.99 ± 2.88%.

And the “% Cell number, Necrosis” value (MCF-7 cells)?
Its value is 2.51% and 2.51 ± 0.45%.

What about the melting point of the same compound?
Its melting point is 281 to 283 °C.

Reference: article PMC8221158, “Novel pyrrolizines bearing 3,4,5-trimethoxyphenyl moiety: design, synthesis, molecular docking, and biological evaluation as potential multi-target cytotoxic agents” (Journal of Enzyme Inhibition and Medicinal Chemistry, 2021)
